Where “and” joins values, the source holds several entries; their conditions need not be identical. Equal values may be shown once.

The T/C is the ratio of treated to control.

This experiment concerns Swiss mice, Sarcoma 180 sc, mean tumor weight T/C. Description: NCI In Vivo Anticancer Drug Screen. Data for tumor model Sarcoma 180 (subcutaneous) in Swiss mice. To be noted: endpoint: mean tumor weight, higher = larger tumour. A digest of the protocol:
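T/C ratio: treated over vehicle-treated controls, measuring survival or tumor size in transplanted-tumor mice.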

Setting [1] is: dose: 500.0 mg/kg/injection, schedule: Q01DX007 (ip), vehicle: carboxymethylcellulose (CMC).

With `CC=C(/C(=C/C)c1ccc(O)cc1)c1ccc(O)cc1`, the T/C reads like this: (dose: 15.0 mg/kg/injection, schedule: Q01DX007 (ip), vehicle: carboxymethylcellulose (CMC)) 52 % of control; (dose: 20.0 mg/kg/injection, schedule: Q01DX007 (ip), vehicle: carboxymethylcellulose (CMC)) 42 % of control; (dose: 27.5 mg/kg/injection, schedule: Q#A X014 (ip), vehicle: carboxymethylcellulose (CMC)) 40 % of control and 54 % of control; (dose: 30.0 mg/kg/injection, schedule: Q01DX007 (ip), vehicle: carboxymethylcellulose (CMC)) 48 % of control; (dose: 44.0 mg/kg/injection, schedule: Q01DX007 (ip), vehicle: carboxymethylcellulose (CMC)) 31 % of control and 40 % of control; (dose: 66.0 mg/kg/injection, schedule: Q01DX007 (ip), vehicle: carboxymethylcellulose (CMC)) 35 % of control. In addition, the T/C runs as follows: (dose: 80.0 mg/kg/injection, schedule: Q01DX007 (sc), vehicle: carboxymethylcellulose (CMC)) 58 % of control; (dose: 80.0 mg/kg/injection, schedule: Q01DX007 (sc), vehicle: steriod suspending solution) 14 % of control; (dose: 94.0 mg/kg/injection, schedule: Q#A X014 (ip), vehicle: carboxymethylcellulose (CMC)) 50 % of control and 69 % of control; (dose: 100.0 mg/kg/injection, schedule: Q01DX007 (ip), vehicle: carboxymethylcellulose (CMC)) 52 % of control; (dose: 124.0 mg/kg/injection, schedule: Q01DX007 (ip), vehicle: carboxymethylcellulose (CMC)) 104 % of control; (dose: 150.0 mg/kg/injection, schedule: Q01DX007 (ip), vehicle: carboxymethylcellulose (CMC)) 39 % of control. Besides, the T/C is 52 % of control (dose: 160.0 mg/kg/injection, schedule: Q01DX007 (sc), vehicle: carboxymethylcellulose (CMC)); 23 % of control (dose: 160.0 mg/kg/injection, schedule: Q01DX007 (sc), vehicle: steriod suspending solution); 84 % of control (dose: 188.0 mg/kg/injection, schedule: Q01DX007 (ip), vehicle: carboxymethylcellulose (CMC)); 28 % of control and 31 % of control (dose: 225.0 mg/kg/injection, schedule: Q01DX007 (ip), vehicle: carboxymethylcellulose (CMC)); 71 % of control (dose: 277.0 mg/kg/injection, schedule: Q01DX007 (ip), vehicle: carboxymethylcellulose (CMC)); 63 % of control (dose: 281.0 mg/kg/injection, schedule: Q01DX007 (ip), vehicle: carboxymethylcellulose (CMC)). Moreover, the T/C is, setting by setting: (dose: 320.0 mg/kg/injection, schedule: Q01DX007 (sc), vehicle: carboxymethylcellulose (CMC)) 30 % of control; (dose: 320.0 mg/kg/injection, schedule: Q01DX007 (sc), vehicle: steriod suspending solution) 23 % of control; (dose: 333.0 mg/kg/injection, schedule: Q01DX007 (ip), vehicle: carboxymethylcellulose (CMC)) 29 % of control; (dose: 422.0 mg/kg/injection, schedule: Q01DX007 (ip), vehicle: carboxymethylcellulose (CMC)) 58 % of control and 65 % of control; under setting [1], 24 % of control and 38 % of control; (dose: 630.0 mg/kg/injection, schedule: Q01DX007 (ip), vehicle: carboxymethylcellulose (CMC)) 63 % of control. Besides, the T/C was 47 % of control (dose: 640.0 mg/kg/injection, schedule: Q01DX007 (sc), vehicle: carboxymethylcellulose (CMC)); 17 % of control (dose: 640.0 mg/kg/injection, schedule: Q01DX007 (sc), vehicle: steriod suspending solution); 35 % of control (dose: 750.0 mg/kg/injection, schedule: Q01DX007 (ip), vehicle: carboxymethylcellulose (CMC)); 44 % of control (dose: 945.0 mg/kg/injection, schedule: Q01DX007 (ip), vehicle: carboxymethylcellulose (CMC)).

With `CC(=O)[C@H]1[C@H](C)C[C@H]2[C@@H]3CCC4=CC(=O)CC[C@]4(C)[C@@]3(F)[C@@H](O)C[C@@]21C`, the T/C is, setting by setting: (dose: 3.0 mg/kg/injection, schedule: Q01DX007 (sc), vehicle: steriod suspending solution) 87 % of control; (dose: 6.1 mg/kg/injection, schedule: Q01DX007 (sc), vehicle: steriod suspending solution) 63 % of control; (dose: 12.5 mg/kg/injection, schedule: Q01DX007 (sc), vehicle: steriod suspending solution) 47 % of control; (dose: 25.0 mg/kg/injection, schedule: Q01DX007 (sc), vehicle: steriod suspending solution) 44 % of control; (dose: 47.0 mg/kg/injection, schedule: Q01DX007 (sc), vehicle: steriod suspending solution) 13 % of control; (dose: 94.0 mg/kg/injection, schedule: Q01DX007 (sc), vehicle: steriod suspending solution) 26 % of control. Also, the T/C was 29 % of control and 31 % of control and 33 % of control (dose: 187.5 mg/kg/injection, schedule: Q#A X014 (sc), vehicle: steriod suspending solution); 22 % of control and 28 % of control and 42 % of control (dose: 281.25 mg/kg/injection, schedule: Q#A X014 (sc), vehicle: steriod suspending solution); 25 % of control (dose: 500.0 mg/kg/injection, schedule: Q01DX007 (sc), vehicle: steriod suspending solution); 36 % of control (dose: 562.0 mg/kg/injection, schedule: Q01DX007 (sc), vehicle: steriod suspending solution); 20 % of control (dose: 600.0 mg/kg/injection, schedule: Q01DX007 (sc), vehicle: steriod suspending solution); 28 % of control (dose: 700.0 mg/kg/injection, schedule: Q01DX007 (sc), vehicle: steriod suspending solution). Besides, the T/C is 16 % of control (dose: 800.0 mg/kg/injection, schedule: Q01DX007 (sc), vehicle: steriod suspending solution); 21 % of control (dose: 843.0 mg/kg/injection, schedule: Q01DX007 (sc), vehicle: steriod suspending solution); 29 % of control (dose: 1265.0 mg/kg/injection, schedule: Q01DX007 (sc), vehicle: steriod suspending solution); 24 % of control (dose: 1890.0 mg/kg/injection, schedule: Q01DX007 (sc), vehicle: steriod suspending solution).

Consider `C[C@@H]1C[C@H]2[C@@H]3CCC4=CC(=O)C=C[C@]4(C)[C@@]3(F)[C@@H](O)C[C@]2(C)[C@@]1(O)C(=O)CO`, for which the T/C (dose: 7.0 mg/kg/injection, schedule: Q01DX007 (sc), vehicle: steriod suspending solution) was 50 % of control and 56 % of control; the T/C (dose: 11.0 mg/kg/injection, schedule: Q01DX007 (sc), vehicle: steriod suspending solution) was 38 % of control and 39 % of control; the T/C (dose: 16.0 mg/kg/injection, schedule: Q01DX007 (sc), vehicle: steriod suspending solution) was 35 % of control and 36 % of control and 47 % of control; the T/C (dose: 24.0 mg/kg/injection, schedule: Q01DX007 (sc), vehicle: steriod suspending solution) was 30 % of control and 35 % of control and 40 % of control.

Turning to `CCOC(=O)C(N)CC(C)C` (stereo not given), the T/C is 101 % of control (dose: 250.0 mg/kg/injection, schedule: Q01DX007 (ip), vehicle: carboxymethylcellulose (CMC)) and 120 % of control under setting [1].

`NNc1nnc(NN)c2ccccc12`: the T/C is 167 % of control (dose: 31.25 mg/kg/injection, schedule: Q01DX007 (ip), vehicle: saline); 176 % of control (dose: 62.5 mg/kg/injection, schedule: Q01DX007 (ip), vehicle: saline); 119 % of control (dose: 125.0 mg/kg/injection, schedule: Q01DX007 (ip), vehicle: saline).

Take `Nc1ncnc2[nH]ncc12`: the T/C runs as follows: (dose: 0.55 mg/kg/injection, schedule: Q#A X014 (ip), vehicle: carboxymethylcellulose (CMC)) 74 % of control; (dose: 1.1 mg/kg/injection, schedule: Q#A X014 (ip), vehicle: carboxymethylcellulose (CMC)) 79 % of control; (dose: 2.2 mg/kg/injection, schedule: Q#A X014 (ip), vehicle: carboxymethylcellulose (CMC)) 76 % of control; (dose: 4.4 mg/kg/injection, schedule: Q#A X014 (ip), vehicle: carboxymethylcellulose (CMC)) 87 % of control.

As to `Oc1ccccc1C(Nc1nc2ccccc2s1)c1ccc2cccnc2c1O` (stereo not given), the T/C was 94 % of control (dose: 62.0 mg/kg/injection, schedule: Q01DX007 (ip), vehicle: other); 97 % of control (dose: 125.0 mg/kg/injection, schedule: Q01DX007 (ip), vehicle: other); 46 % of control (dose: 250.0 mg/kg/injection, schedule: Q01DX007 (ip), vehicle: other).

Source of the values: PubChem BioAssay AID342 (DTP/NCI, 2004).
